These compounds were tested against T1, human GPR119 (Homo sapiens, UniProt Q8TDV5) (assay: Measurement of GPR119 signaling (cAMP assay) in cells stably transfected with human GPR119). Conditions: cAMP stimulation; read-out: GPR119 HumC EC50.
T1 sequence (Q8TDV5 1-308 limits assumed): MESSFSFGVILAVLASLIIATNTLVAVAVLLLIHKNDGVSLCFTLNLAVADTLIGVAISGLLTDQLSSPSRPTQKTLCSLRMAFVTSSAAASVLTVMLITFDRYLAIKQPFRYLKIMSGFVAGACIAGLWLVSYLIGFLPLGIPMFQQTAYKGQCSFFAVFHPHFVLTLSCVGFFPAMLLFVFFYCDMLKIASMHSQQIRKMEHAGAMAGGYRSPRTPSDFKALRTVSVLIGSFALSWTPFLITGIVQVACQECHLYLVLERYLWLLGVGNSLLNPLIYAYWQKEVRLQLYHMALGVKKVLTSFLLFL
Type: cell-based

SMILES | EC50 [nM]
CC(C)c1noc(N2CCC([C@H]3C[C@H]3CCOc3ccc(CC(=O)N4CCC4)c(C#N)c3)CC2)n1 [Example 105] | 2
Cc1cc(OCC[C@@H]2C[C@@H]2C2CCN(c3nc(C(C)C)no3)CC2)ccc1CC(=O)N(C)C [Example 106] | 3.4
COCc1noc(N2CCC([C@H]3C[C@H]3CCOc3ccc(CC(=O)N(C)C)c(C)c3)CC2)n1 [Example 107] | 5.2

Same assay, conditions: stated in the example text without 'GPR119'; read-out: Human EC50

SMILES | EC50 [nM]
CC(C)c1noc(N2CCC([C@H]3C[C@H]3CCOc3ccc(CC(=O)N4CCC4)cc3F)CC2)n1 [Example 101, 4-((1R,2S)-2-{2-[4-(2-azetidin-1-yl-2-oxoethyl)-2-fluorophenoxy]ethyl}cyclopropyl)-1-(3-isopropyl-1,2,4-oxadiazol-5-yl)piperidine] | 5.3

Same assay, conditions: stated in the example text; cAMP stimulation, human GPR119; read-out: GPR119 Human EC50

SMILES | EC50 [nM]
CCS(=O)(=O)c1ccc(OCC[C@H]2C[C@H]2C2CCN(c3nc(COC)no3)CC2)cc1F (stereo in doubt) [Example 15, 4-((1S,2R)-2-{2-[4-(ethylsulfonyl)-3-fluorophenoxy]ethyl}cyclopropyl)-1-[3-(methoxymethyl)-1,2,4-oxadiazol-5-yl]piperidine] | 8.4
CC(C)c1noc(N2CCC([C@H]3C[C@H]3CCOc3ccc(CC(=O)N4CC(F)C4)c(F)c3)CC2)n1 [Example 100, 4-[(1R,2S)-2-(2-{3-fluoro-4-[2-(3-fluoroazetidin-1-yl)-2-oxoethyl]phenoxy}ethyl)cyclopropyl]-1-(3-isopropyl-1,2,4-oxadiazol-5-yl)piperidine] | 0.4
CC1(OC(=O)N2CCC([C@H]3C[C@H]3CCOc3ccc(CC(=O)N4CCC4)c(F)c3)CC2)CC1 [Example 59, 1-methylcyclopropyl 4-[(1R,2S)-2-(2-{4-[2-(azetidin-1-yl)-2-oxoethyl]-3-fluorophenoxy}ethyl)cyclopropyl]piperidine-1-carboxylate] | 3.3
COC(=O)N1CCC([C@H]2C[C@H]2CCOc2cc(C#N)nc(C)n2)CC1 [Example 44] | 34
O=C(Cc1ccc(OCC[C@@H]2C[C@@H]2C2CCN(C(=O)OCC3CC3)CC2)cc1F)N1CCC1 [Example 61, cyclopropylmethyl-4-((1R,2S)-2-{2-[4-(2-azetidin-1-yl-2-oxoethyl)-3-fluorophenoxy]ethyl}cyclopropyl)piperidine-1-carboxylate] | 2
CC(C)(C)NC(=O)N1CCC([C@H]2C[C@H]2CCOc2ccc(-n3cnnn3)cc2)CC1 [Example 76, N-(tert-butyl)-4-((1R,2S)-2-(2-(4-(1H-tetrazol-1-yl)phenoxy)ethyl)cyclopropyl)piperidine-1-carboxamide] | 14.7

Same assay, conditions: table column; cAMP stimulation, human GPR119; read-out: GPR119 Human EC50

SMILES | EC50 [nM]
CCOC(=O)N1CCC([C@H]2C[C@H]2CCOc2ccc(S(C)(=O)=O)cn2)CC1 [Example 20] | 22
CCOCc1noc(N2CCC([C@H]3C[C@H]3CCOc3ccc(S(C)(=O)=O)cn3)CC2)n1 [Example 218] | 14
CC(C)c1noc(N2CCC([C@H]3C[C@H]3CCOc3ccc(CC(=O)N(C)C)c(F)c3)CC2)n1 [Example 143] | 0.94
CCCc1noc(N2CCC([C@H]3C[C@H]3CCOc3ccc(S(C)(=O)=O)cn3)CC2)n1 [Example 211] | 8
CC(C)c1noc(N2CCC([C@H]3C[C@H]3CCOc3ccc(CC(=O)N4CCn5c(nnc5C5CC5)C4)c(F)c3)CC2)n1 [Example 176] | 5.7
CS(=O)(=O)c1ccc(OCC[C@@H]2C[C@@H]2C2CCN(c3noc(C4CCC4)n3)CC2)nc1 [Example 241] | 4
CC(C)CC(=O)N1CCC([C@H]2C[C@H]2CCOc2ccc(S(C)(=O)=O)cn2)CC1 [Example 86] | 29
CC(C)c1noc(N2CCC([C@H]3C[C@H]3CCOc3ccc(CC(=O)N4Cc5nnc(C(F)(F)F)n5C(C)(C)C4)c(F)c3)CC2)n1 [Example 185] | 8.8
CC(C)c1noc(N2CCC([C@H]3C[C@H]3CCOc3ccc(CC(=O)N4CCOCC4)cc3)CC2)n1 [Example 133] | 6
CC(C)(C)c1nc(N2CCC([C@H]3C[C@H]3CCOc3ccc(S(C)(=O)=O)cn3)CC2)no1 [Example 236] | 1.7
CC(C)(C)COC(=O)N1CCC([C@H]2C[C@H]2CCOc2ccc(S(C)(=O)=O)c(F)c2)CC1 [Example 41] | 0.4
CC(C)c1noc(N2CCC([C@H]3C[C@H]3CCOc3ccc(CC(=O)N(C)Cc4cscn4)c(F)c3)CC2)n1 [Example 166] | 2.6
COCc1noc(N2CCC([C@H]3C[C@H]3CCOc3ccc(-n4cnnn4)cn3)CC2)n1 [Example 230] | 1.6
Cc1cc(CC(=O)N(C)C2CCS(=O)(=O)C2)cnc1OCC[C@@H]1C[C@@H]1C1CCN(c2nc(C(C)C)no2)CC1 (stereo partly shown) [Example 264] | 11
CC(C)(C)CC(=O)N1CCC([C@H]2C[C@H]2CCOc2ccc(S(C)(=O)=O)cn2)CC1 [Example 89] | 16
CC(C)c1noc(N2CCC([C@H]3C[C@H]3CCOc3ccc(CC(=O)N4CCn5nc(C(F)(F)F)nc5C4)c(F)c3)CC2)n1 [Example 194] | 1.5
COCCc1noc(N2CCC([C@H]3C[C@H]3CCOc3ccc(S(C)(=O)=O)cn3)CC2)n1 [Example 216] | 26
Cc1cc(OCC[C@@H]2C[C@@H]2C2CCN(c3nc(C(C)C)no3)CC2)ccc1-n1cnnn1 [Example 124] | 2.6
CC(C)c1noc(N2CCC([C@H]3C[C@H]3CCOc3cc(F)c(C(=O)NC(C)(C)CO)c(F)c3)CC2)n1 [Example 122] | 10
CC1(OC(=O)N2CCC([C@H]3C[C@H]3CCOc3ccc(S(C)(=O)=O)cn3)CC2)CC1 [Example 24] | 4.2
CCS(=O)(=O)c1ccc(OCC[C@@H]2C[C@@H]2C2CCN(c3nc(C(C)C)no3)CC2)cc1 [Example 29] | 7.7
CC(C)c1noc(N2CCC([C@H]3C[C@H]3CCOc3ccc(CC(=O)N(C)C4COC4)c(F)c3)CC2)n1 [Example 172] | 0.88
CCN(CC)C(=O)Cc1ccc(OCC[C@@H]2C[C@@H]2C2CCN(c3nc(C(C)C)no3)CC2)cc1 [Example 136] | 3.9
CC(C)c1noc(N2CCC([C@H]3C[C@H]3CCOc3ccc(CC(=O)N4CC(O)C4)c(F)c3)CC2)n1 [Example 139] | 6
O=C(CCC(F)(F)F)N1CCC([C@H]2C[C@H]2CCOc2ccc(-n3cnnn3)cc2)CC1 [Example 78] | 8.5
CC(C)c1noc(N2CCC([C@H]3C[C@H]3CCOc3ccc(CC(=O)NC4(C(F)(F)F)CC4)c(F)c3)CC2)n1 [Example 153] | 4.3
Cc1nc2c([nH]1)CN(C(=O)Cc1ccc(OCC[C@@H]3C[C@@H]3C3CCN(c4nc(C(C)C)no4)CC3)cc1F)C2 [Example 192] | 4.2
CC(C)c1noc(N2CCC([C@H]3C[C@H]3CCOc3ccc(CC(=O)N4CCn5nc(C(F)(F)F)nc5C4C)c(F)c3)CC2)n1 (stereo partly shown) [Example 178] | 14
CC(C)c1noc(N2CCC([C@H]3C[C@H]3CCOc3ccc(CC(=O)N4C[C@H](F)[C@@H](F)C4)c(F)c3)CC2)n1 [Example 158] | 1.1
CC(C)c1noc(N2CCC([C@H]3C[C@H]3CCOc3ccc(CC(=O)N4CC(F)(F)C4)cc3)CC2)n1 [Example 132] | 2.7
